Laboratory results as given in ChEMBL document CHEMBL3868595, “Plazomicin is effective in a non-human primate pneumonic plague model” (Bioorg Med Chem, 2016).
The source made the active and inactive calls. The calls are words filed in the database; no cut-off is given here.

What was measured:
Yersinia pestis [1] = assay: Antibacterial activity against Yersinia pestis Colorado 92 infected in African green monkey B6436 model assessed as bacterial burden in spleen at 25 mg/kg, iv administered within 6 hrs post onset of sustained fever as 30 mins infusion for 5 days (reference value: 1.6 10^9CFU/g); type: functional, organism-based; settings: CO92
African green monkey [2] = assay: Toxicity in African green monkey assessed as effect on serum creatinine level at 25 mg/kg administered as iv infusion twice daily for 7 consecutive days measured on day 7 by LC-MS/MS analysis; type: organism-based; settings: chlorocebus sabaeus, in vivo
African green monkey [3] = assay: Toxicity in African green monkey assessed as effect on serum creatinine level at 35 mg/kg administered as iv infusion twice daily for 7 consecutive days measured on day 7 by LC-MS/MS analysis; type: organism-based; settings: chlorocebus sabaeus, in vivo
Yersinia pestis [4] = assay: Antibacterial activity against Yersinia pestis Colorado 92 infected in African green monkey assessed as improvement in survival of monkey at 6.25 to 25 mg/kg, iv administered within 6 hrs post onset of sustained fever as 30 mins infusion for 10 days; type: functional, organism-based; settings: CO92
Yersinia pestis [5] = assay: (§1) Antibacterial activity against Yersinia pestis Colorado 92 infected in African green monkey C2083 model assessed as bacterial burden in spleen at 12.5 mg/kg, iv administered within 6 hrs post onset of sustained fever as 30 mins infusion for 5 days (reference value: 1.6 10^9CFU/g); type: functional, CO92
Yersinia pestis [6] = assay: Antibacterial activity against Yersinia pestis Colorado 92 infected in African green monkey 8047 model assessed as bacterial burden in spleen at 6.25 mg/kg, iv administered within 6 hrs post onset of sustained fever as 30 mins infusion for 10 days (reference value: 1.6 10^9CFU/g); type: functional, CO92
Yersinia pestis [7] = assay: Antibacterial activity against Yersinia pestis Colorado 92 infected in African green monkey B6415 model assessed as bacterial burden in liver at 25 mg/kg, iv administered within 6 hrs post onset of sustained fever as 30 mins infusion for 5 days (reference value: 5.2 10^8CFU/g); type: functional, CO92
Yersinia pestis [8] = assay: Antibacterial activity against Yersinia pestis Colorado 92 infected in African green monkey 8047 model assessed as bacterial burden in liver at 6.25 mg/kg, iv administered within 6 hrs post onset of sustained fever as 30 mins infusion for 10 days (reference value: 5.2 10^8CFU/g); type: functional, CO92
Yersinia pestis [9] = assay: as §1, with “B6873” for “C2083”, “tracheobronchial lymph nodes” for “spleen”, “7.7” for “1.6”; type: functional, organism-based; settings: CO92, Lymph node
Yersinia pestis [10] = assay: (§2) Antibacterial activity against Yersinia pestis Colorado 92 infected in African green monkey B6872 model assessed as bacterial burden in tracheobronchial lymph nodes at 25 mg/kg, iv administered within 6 hrs post onset of sustained fever as 30 mins infusion for 5 days (reference value: 7.7 10^9CFU/g); type: functional, organism-based; settings: CO92, Lymph node
Yersinia pestis [11] = assay: as §2, with “B6889” for “B6872”, “6.25” for “25”; type: functional, CO92, Lymph node
Yersinia pestis [12] = assay: as §2, with “8047” for “B6872”, “6.25” for “25”, “10” for “5”; type: functional, CO92, Lymph node
Yersinia pestis [13] = assay: Antibacterial activity against Yersinia pestis Colorado 92 infected in African green monkey C2149 model assessed as bacterial burden in heart at 6.25 mg/kg, iv administered within 6 hrs post onset of sustained fever as 30 mins infusion for 5 days (reference value: 2.6 10^7CFU/g); type: functional, CO92
Yersinia pestis [14] = assay: Antibacterial activity against Yersinia pestis Colorado 92 infected in African green monkey B6106 model assessed as bacterial burden in brain at 25 mg/kg, iv administered within 6 hrs post onset of sustained fever as 30 mins infusion for 5 days (reference value: 1.9 10^6CFU/g); type: functional, CO92
African green monkey [15] = assay: Toxicity in African green monkey B6127 model infected with Yersinia pestis Colorado 92 assessed as tubule damage at 25 mg/kg, iv administered within 6 hrs post onset of sustained fever as 30 mins infusion for 10 days by hematoxylin staining based assay; type: organism-based; settings: chlorocebus sabaeus, in vivo
African green monkey [16] = assay: Toxicity in African green monkey B6428 model infected with Yersinia pestis Colorado 92 assessed as blood urea nitrogen level at 25 mg/kg, iv administered within 6 hrs post onset of sustained fever as 30 mins infusion for 10 days (reference value: 16 mg/dl); type: organism-based; settings: chlorocebus sabaeus, in vivo
African green monkey [17] = assay: Toxicity in African green monkey 7972 model infected with Yersinia pestis Colorado 92 assessed as blood urea nitrogen level at 25 mg/kg, iv administered within 6 hrs post onset of sustained fever as 30 mins infusion for 10 days (reference value: 13 mg/dl); type: organism-based; settings: chlorocebus sabaeus, in vivo
African green monkey [18] = assay: Toxicity in African green monkey 7929 model infected with Yersinia pestis Colorado 92 assessed as blood urea nitrogen level at 25 mg/kg, iv administered within 6 hrs post onset of sustained fever as 30 mins infusion for 10 days (reference value: 15 mg/dl); type: organism-based; settings: chlorocebus sabaeus, in vivo
African green monkey [19] = assay: Toxicity in African green monkey 8067 model infected with Yersinia pestis Colorado 92 assessed as serum creatinine level at 25 mg/kg, iv administered within 6 hrs post onset of sustained fever as 30 mins infusion for 10 days (reference value: 0.8 mg/dl); type: organism-based; settings: chlorocebus sabaeus, in vivo
African green monkey [20] = assay: Toxicity in African green monkey 8067 model infected with Yersinia pestis Colorado 92 assessed as serum gamma glutamyl-transferase level at 25 mg/kg, iv administered within 6 hrs post onset of sustained fever as 30 mins infusion for 10 days (reference value: 40 IU/L); type: organism-based; settings: chlorocebus sabaeus, in vivo
African green monkey [21] = assay: Toxicity in African green monkey 7337 model infected with Yersinia pestis Colorado 92 assessed as serum gamma glutamyl-transferase level at 25 mg/kg, iv administered within 6 hrs post onset of sustained fever as 30 mins infusion for 10 days (reference value: 67 IU/L); type: organism-based; settings: chlorocebus sabaeus, in vivo
African green monkey [22] = assay: Toxicity in African green monkey B6291 model infected with Yersinia pestis Colorado 92 assessed as serum alanine aminotransferase level at 25 mg/kg, iv administered within 6 hrs post onset of sustained fever as 30 mins infusion for 10 days (reference value: 47 IU/L); type: organism-based; settings: chlorocebus sabaeus, in vivo
African green monkey [23] = assay: Toxicity in African green monkey 7972 model infected with Yersinia pestis Colorado 92 assessed as serum alanine aminotransferase level at 25 mg/kg, iv administered within 6 hrs post onset of sustained fever as 30 mins infusion for 10 days (reference value: 30 IU/L); type: organism-based; settings: chlorocebus sabaeus, in vivo
African green monkey [24] = assay: Toxicity in African green monkey B5994 model infected with Yersinia pestis Colorado 92 assessed as serum lactate dehydrogenase level at 25 mg/kg, iv administered within 6 hrs post onset of sustained fever as 30 mins infusion for 10 days (reference value: 364 IU/L); type: organism-based; settings: chlorocebus sabaeus, in vivo
[25] = Toxicity in African green monkey B6428 model infected with Yersinia pestis Colorado 92 assessed as total white blood cell count at 25 mg/kg, iv administered within 6 hrs post onset of sustained fever as 30 mins infusion for 10 days (reference value: 6.2 10^3/microL); type: organism-based; settings: chlorocebus aethiops, in vivo
[26] = Toxicity in African green monkey 7972 model infected with Yersinia pestis Colorado 92 assessed as total white blood cell count at 25 mg/kg, iv administered within 6 hrs post onset of sustained fever as 30 mins infusion for 10 days (reference value: 6.9 10^3/microL); type: organism-based; settings: chlorocebus aethiops, in vivo

CN[C@@H]1[C@@H](O)[C@@H](O[C@@H]2[C@@H](O)[C@H](O[C@H]3OC(CNCCO)=CC[C@H]3N)[C@@H](N)C[C@H]2NC(=O)[C@@H](O)CCN)OC[C@]1(C)O [PLAZOMICIN]
Activity (Yersinia pestis [1]): Below limit of detection
Activity (African green monkey [2]): 0.55 mg/dL
Activity (African green monkey [3]): 0.6 mg/dL
Activity (Yersinia pestis [4]): Active
Activity (Yersinia pestis [5]): 1.5 ×10⁷ CFU/g
Activity (Yersinia pestis [6]): 19 CFU/g
Activity (Yersinia pestis [7]): 2 ×10⁶ CFU/g
Activity (Yersinia pestis [8]): 1.3 ×10⁶ CFU/g
Activity (Yersinia pestis [9]): Below limit of detection
Activity (Yersinia pestis [10]): Below limit of detection
Activity (Yersinia pestis [11]): 3.6 ×10⁹ CFU/g
Activity (Yersinia pestis [12]): 2 ×10⁹ CFU/g
Activity (Yersinia pestis [13]): 9.7 ×10⁶ CFU/g
Activity (Yersinia pestis [14]): 6.4 ×10⁷ CFU/g
Activity (African green monkey [15]): Toxic
Activity (African green monkey [16]): 26 mg/dL
Activity (African green monkey [17]): 24 mg/dL
Activity (African green monkey [18]): 17 mg/dL
Activity (African green monkey [19]): 0.8 mg/dL
Activity (African green monkey [20]): 26 IU/L
Activity (African green monkey [21]): 63 IU/L
Activity (African green monkey [22]): 68 IU/L
Activity (African green monkey [23]): 36 IU/L
Activity (African green monkey [24]): 403 IU/L
Activity [25]: 6 ×10³ /uL
Activity [26]: 7.6 ×10³ /uL
